Source: ChEMBL document CHEMBL1141027, “HY251, a novel cell cycle inhibitor isolated from Aralia continentalis, induces G1 phase arrest via p53-dependent pathway in HeLa cells” (2009)
The source made the active and inactive calls. No cut-off for these calls is given here.

Experiments:
HeLa [1] = assay: Cell cycle arrest in human HeLa cells assessed as accumulation at G1 phase at 100 uM treated 12 hrs after nocodazole challenge by flow cytometry; assay type: functional, cell-based; settings: TDE = time-dependent effect
HeLa [2] = assay: Cell cycle arrest in human HeLa cells assessed as accumulation at G2/M phase at 50 ng/ml after 12 hrs by flow cytometry; assay type: functional
HeLa [3] = assay: Cell cycle arrest in human HeLa cells assessed as accumulation at G1 phase at 50 ng/ml after 12 hrs by flow cytometry; assay type: functional
HeLa [4] = assay: Cell cycle arrest in human HeLa cells assessed as accumulation at G1 phase at 100 uM treated 12 hrs after nocodazole challenge measured after 6 hrs by flow cytometry; assay type: functional
HeLa [5] = assay: Cell cycle arrest in human HeLa cells assessed as accumulation at G2/M phase at 100 uM treated 12 hrs after nocodazole challenge measured after 6 hrs by flow cytometry; assay type: functional
HeLa [6] = assay: Cell cycle arrest in human HeLa cells assessed as accumulation at G1 phase at 100 uM treated 12 hrs after nocodazole challenge measured after 12 hrs by flow cytometry; assay type: functional
HeLa [7] = assay: Cell cycle arrest in human HeLa cells assessed as accumulation at G2/M phase at 100 uM treated 12 hrs after nocodazole challenge measured after 12 hrs by flow cytometry; assay type: functional
HeLa [8] = assay: Cell cycle arrest in human HeLa cells assessed as accumulation at G1 phase at 100 uM treated 12 hrs after nocodazole challenge measured after 24 hrs by flow cytometry; assay type: functional
HeLa [9] = assay: Cell cycle arrest in human HeLa cells assessed as accumulation at G2/M phase at 100 uM treated 12 hrs after nocodazole challenge measured after 24 hrs by flow cytometry; assay type: functional
[10] = target: Cyclin-dependent kinase 2 (Homo sapiens) (UniProt P24941); assay: Inhibition of CDK2 in human HeLa cells by immunoprecipitation kinase assay; assay type: cell-based
[11] = target: Cyclin-dependent kinase 4 (Homo sapiens) (UniProt P11802); assay: Inhibition of CDK4 in human HeLa cells by immunoprecipitation kinase assay; assay type: cell-based
Chain of Cyclin-dependent kinase 4 (Homo sapiens) (P11802 whole entry): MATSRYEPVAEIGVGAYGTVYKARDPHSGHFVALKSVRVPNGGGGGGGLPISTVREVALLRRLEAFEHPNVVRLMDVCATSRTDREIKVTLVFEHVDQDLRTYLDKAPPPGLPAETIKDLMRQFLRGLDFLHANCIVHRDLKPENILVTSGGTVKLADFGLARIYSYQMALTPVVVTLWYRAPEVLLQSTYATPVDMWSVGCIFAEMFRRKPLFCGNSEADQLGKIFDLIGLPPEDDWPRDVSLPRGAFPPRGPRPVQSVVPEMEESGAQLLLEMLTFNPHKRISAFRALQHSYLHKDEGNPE

[12] = target: Glycogen synthase kinase-3 beta (Homo sapiens) (UniProt P49841); assay: Inhibition of GSK3-beta in human HeLa cells by immunoprecipitation kinase assay; assay type: cell-based
Chain of Glycogen synthase kinase-3 beta (Homo sapiens) (P49841 whole entry, looked up): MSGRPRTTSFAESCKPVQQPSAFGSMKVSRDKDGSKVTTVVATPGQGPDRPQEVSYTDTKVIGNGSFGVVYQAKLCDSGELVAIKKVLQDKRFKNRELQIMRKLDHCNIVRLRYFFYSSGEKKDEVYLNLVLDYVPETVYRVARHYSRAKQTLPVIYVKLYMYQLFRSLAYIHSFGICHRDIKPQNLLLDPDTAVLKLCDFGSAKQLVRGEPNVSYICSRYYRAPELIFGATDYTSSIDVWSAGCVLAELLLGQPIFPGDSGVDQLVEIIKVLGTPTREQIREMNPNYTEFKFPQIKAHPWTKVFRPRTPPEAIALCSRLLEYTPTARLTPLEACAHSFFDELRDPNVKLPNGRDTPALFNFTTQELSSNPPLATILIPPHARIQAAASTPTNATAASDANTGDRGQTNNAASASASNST

HeLa [13] = assay: Decrease in cyclin D3 expression in human HeLa cells at 100 uM by Western blotting; assay type: functional, cell-based; settings: TDE = time-dependent effect
HeLa [14] = assay: Increase in p21CIP1 level in human HeLa cells at 100 uM by Western blotting; assay type: functional, cell-based; settings: TDE = time-dependent effect
HeLa [15] = assay: Increase in p27KIP1 level in human HeLa cells at 100 uM by Western blotting; assay type: functional, cell-based; settings: TDE = time-dependent effect
HeLa [16] = assay: Increase in hypophosphorylated pRb level in human HeLa cells at 100 uM by Western blotting; assay type: functional, cell-based; settings: TDE = time-dependent effect
[17] = target: Cellular tumor antigen p53 (Homo sapiens) (UniProt P04637); assay: Increase in p53-Ser15 phosphorylation in human HeLa cells at 100 uM by Western blotting; assay type: cell-based
Chain of Cellular tumor antigen p53 (Homo sapiens) (P04637 whole entry, looked up): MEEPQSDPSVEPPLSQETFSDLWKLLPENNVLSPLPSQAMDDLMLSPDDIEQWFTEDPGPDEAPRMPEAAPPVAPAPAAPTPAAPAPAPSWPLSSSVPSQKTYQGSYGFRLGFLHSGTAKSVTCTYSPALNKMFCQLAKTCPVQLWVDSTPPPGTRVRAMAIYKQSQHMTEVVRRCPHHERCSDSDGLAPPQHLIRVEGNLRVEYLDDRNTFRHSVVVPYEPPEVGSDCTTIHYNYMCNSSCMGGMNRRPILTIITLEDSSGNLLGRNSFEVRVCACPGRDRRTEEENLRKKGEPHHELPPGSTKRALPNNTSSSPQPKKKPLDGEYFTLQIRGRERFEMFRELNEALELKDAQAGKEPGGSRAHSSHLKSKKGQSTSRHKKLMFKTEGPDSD

HeLa [18] = assay: Increase in ataxia telangiectasia mutated gene expression in human HeLa cells after 12 hrs by RT-PCR relative to control; assay type: functional
HeLa [19] = assay: Increase in ataxia telangiectasia mutated gene expression in human HeLa cells after 24 hrs by RT-PCR relative to control; assay type: functional

Activity [10]: inactive | Activity [11]: inactive | Activity [12]: inactive | Activity [17]: Active
SMILES: C=CC1CC2(O)CC3(O)CCC=CC3C2(O)C1(O)CCC (centres undefined)
Activity (HeLa [1]): tde | Activity (HeLa [2]): 68% | Activity (HeLa [3]): 4% | Activity (HeLa [4]): 35% | Activity (HeLa [5]): 37% | Activity (HeLa [6]): 48% | Activity (HeLa [7]): 21% | Activity (HeLa [8]): 52% | Activity (HeLa [9]): 11% | Activity (HeLa [13]): tde | Activity (HeLa [14]): tde | Activity (HeLa [15]): tde | Activity (HeLa [16]): tde | fold change (FC) (HeLa [18]): 3.1 | fold change (FC) (HeLa [19]): 3.8
